From patent publication EP4678172A1, “USE OF NAPHTHYLAMIDE COMPOUND IN TREATMENT OF MENINGIOMA” (Shanghai Runshi Medical Technology Co., Ltd, priority 2023, dated 2024)

Experiments:
CH157-MN = assay: Transwell chamber assay (invasion); format: cell-based, human; details: CH157-MN, 2, 5, 10 µM, 24 h; with increasing concentration
Protocol: (§1) • (1) The upper chamber of the pre-cooled Transwell chamber was coated with 50 µL of matrigel, and the matrigel-coated chamber was incubated in an incubator at 37 °C for 6-8 h to allow the matrigel to polymerize into a gel. After 100 µL of a serum-free culture medium was added to each well, the chamber was placed in an incubator for 1 h to allow the basement membrane hydration. The liquid in the upper chamber was removed, and the IOMM-Lee single cell suspension in the logarithmic growth phase was adjusted to a cell density of 2 × 10^5 cells/mL using the serum-free DMEM culture medium; 200 µL of the cell suspension was added to the Transwell chamber; and the culture liquid in the lower chamber was a DMEM culture medium with 20% FBS. Compound (I) samples at different concentrations (0 µM, 0.5 µM, 1 µM, and 2 µM, respectively) were added to the chamber. The culture was finished 24 h later; and the cells in the chamber were removed with a cotton swab, fixed with 4% paraformaldehyde for 20 min, washed with PBS 3 times, stained with crystal violet for 30 min, and observed under a microscope. The invading cells were counted. • (2) With reference to the experimental method (1), the concentrations in the compound (I) treatment groups were replaced by 2 µM, 5 µM, and 10 µM, respectively, and the used human meningioma cell line was IOMM-Lee or CH157-MN.

IOMM-Lee = assay: Transwell chamber assay (invasion); format: cell-based, human; details: IOMM-Lee, 0.5, 1, 2 µM and 2, 5, 10 µM, 24 h; with increasing concentration
Protocol: as §1

[1] = Animal long-term toxicity test, conversion to human maximum tolerated dose; format: in vivo; details: converted from animal long-term toxicity test, human body weight of 60 kg
Protocol: A specific dose and administration frequency can be determined by a skilled physician according to conventional skills allowing for factors such as the route of administration, the health condition of the patient, etc. In the first dose escalation study (phase I trial) in a human, the most sensitive animal species were selected to calculate the maximum recommended starting dose for clinical trials according to the pre-clinical toxicology study. The starting dose was calculated according to the calculation methods recommended by "Technical Guidelines for Non-Clinical Research on Anti-Cancer Drugs" and other guidelines. In some embodiments, in the phase 1 clinical trial of compound (I), in order to ensure the safety of subjects, in combination with the operability of clinical trials and formulation specification, the starting dose of compound (I) for the phase I clinical trial was designed to be 5 mg. Based on the results of an animal long-term toxicity test, the maximum tolerated dose for the human body is converted into 200 mg according to the human body weight of 60 kg. In the phase 1 clinical trial of compound (I), the safety, tolerance, and efficacy of the continuous administration regimen of a daily administration dose of 5 mg-200 mg were researched. […]

patients with meningioma = assay: Phase I clinical trial, tumor assessment by RANO criteria for meningioma; format: in vivo, human; details: for C2 target lesion shrinkage / target lesion shrinkage: head MRI; for target lesion shrinkage: after 6 cycles
Protocol: Compound (I) is currently undergoing phase I clinical trials to evaluate the preliminary efficacy on patients with meningioma.
Drug: compound (I) oral solution, 10-25 mg/day, once daily.
If no serious adverse events occurred, subsequent treatment cycles (21 days for each cycle) of administration may begin until progressive disease (PD) or intolerable toxicity occurred.
The efficacy on tumors was evaluated according to the RANO Criteria for Meningioma (Huang, Raymond Y et al. Proposed response assessment and endpoints for meningioma clinical trials: report from the Response Assessment in Neuro-Oncology Working Group. Neuro-oncology. vol. 21, 1 (2019): 26-36. doi:10.1093/neuonc/noy137). Target lesions were selected from tumor lesions with enhancement according to the criteria and precisely measured. The tumor treatment efficacy on the target lesions was confirmed by comparing the changes in the measured values. […] In addition, the improvement and deterioration of clinical symptoms of patients and the change in steroid hormone doses for symptomatic treatment of neurological symptoms were also used as evaluation indexes in tumor assessment. A tumor assessment was performed at baseline prior to the first administration and then performed once every 6 weeks during the administration until progressive disease (PD) occurred or a new anti-tumor treatment started.

[2] = 34 meningioma patients, oral solution 10-25 mg/day
[3] = RANO criteria for meningioma, 34 meningioma patients, oral solution 10-25 mg/day
[4] = by Feb. 2, 2024, 32 patients completed the tumor assessment, oral solution 10-25 mg/day
[5] = by Jan. 16, 2023, 5 patients completed the tumor assessment, oral solution 10-25 mg/day
[6] = of 34 meningioma patients, oral solution 10-25 mg/day

## Cc1cc(NC(=O)c2cccc3cc(-c4cccc5[nH]nc(N)c45)ccc23)ccc1F [compound (I)]
CH157-MN
  invasion rates: significantly decreased
IOMM-Lee
  invasion rates: significantly decreased
[1]
  maximum tolerated dose for the human body: 200 mg
Patients with meningioma; [2]
  adverse events associated with the administration (severity): mostly mild and moderate
  adverse events with an incidence of greater than 20%: hypertension, decreased platelet count, increased blood lactate dehydrogenase, sinus bradycardia, proteinuria, increased aspartate aminotransferase, increased alanine aminotransferase, hypokalemia, hyperlipidemia, decreased neutrophil count, decreased leukocyte count, diarrhea, and anemia
Patients with meningioma; [3]
  disease control rate: 82.4%
  objective remission rate: 29.41%
Patients with meningioma; Typical case 1: anaplastic meningioma WHO grade III, oral solution 15 mg once daily, two cycles
  C2 target lesion shrinkage: 56%
Patients with meningioma; Typical case 1: oral solution 15 mg once daily
  adverse events during the treatment: No adverse events
Patients with meningioma; Typical case 1: oral solution 15 mg once daily, two cycles
  clinical symptoms reported by subject: significantly mitigated head-distending pain
Patients with meningioma; Typical case 2: baseline blindness in both eyes, oral solution 15 mg once daily, after two cycles
  clinical symptoms of subject: vision recovery and self-care recovery
Patients with meningioma; Typical case 2: meningioma (fibrous) WHO grade I, oral solution 15 mg once daily, two cycles
  C2 target lesion shrinkage: 36%
Patients with meningioma; Typical case 2: oral solution 15 mg once daily, recovered after administration was suspended
  main adverse event during the treatment: mild or moderate hypertension
Patients with meningioma; Typical case 3: malignant meningioma, oral solution 15 mg once daily
  C2 target lesion shrinkage: 56%
Patients with meningioma; Typical case 3: oral solution 15 mg once daily, recovered after taking a hypotensor
  main adverse event during the treatment: mild or moderate hypertension
Patients with meningioma; Typical case 4: atypical meningioma WHO grade II, oral solution 20 mg once daily
  target lesion shrinkage: 61.47%
Patients with meningioma; Typical case 4: oral solution 20 mg once daily, recovered after symptomatic treatment
  main adverse events during the treatment: mild proteinuria, decreased platelet count, decreased neutrophil count, decreased leucocyte count, and increased alanine aminotransferase
Patients with meningioma; Typical case 5: oral solution 25 mg once daily, mitigated/recovered after symptomatic treatment
  main adverse events during the treatment: mild hypertension, decreased platelet count, decreased neutrophil count, and increased alanine aminotransferase
Patients with meningioma; Typical case 5: papillary meningioma WHO grade III, oral solution 25 mg once daily
  target lesion shrinkage: 36.73%
Patients with meningioma; [4]
  MR cases: 6
  PR cases: 4
Patients with meningioma; [5]
  MR case: 1
  PR cases: 2
Patients with meningioma; [6]
  patients exhibited tumor shrinkage after administration: 26 patients
  patients exhibiting tumor shrinkage after administration, share of all patients: 76.5%
